According to US20230114728A1 (Venatorx Pharmaceuticals, Inc., priority 2019, published 2023):
Converted amounts (≈) assume the structure as drawn.

Tests used:
Format in all cases: cell-based
N. gonorrhoeae FA1090 = test: Liquid broth MIC in Fastidious broth; settings: Neisseria gonorrhoeae; N. gonorrhoeae strain FA1090; Fastidious broth; read-out: Minimum Inhibitory Concentration, N. gonorrhoeae FA1090
Method in brief: (§1)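 Colonies were swabbed from chocolate agar after 24 h growth and standardised by optical density at 600 nm. Compounds were serially diluted twofold in Fastidious broth, and bacteria added to give 5×10^5 CFU/mL. After about 24 h at 36 °C in 5% CO2, the lowest concentration allowing under 10% growth was taken as MIC.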

N. gonorrhoeae WHO G = test: Liquid broth MIC in Fastidious broth; settings: Neisseria gonorrhoeae; N. gonorrhoeae strain WHO G; Fastidious broth; read-out: Minimum Inhibitory Concentration, N. gonorrhoeae WHO G
Method in brief: as §1

N. gonorrhoeae H041 = test: Liquid broth MIC in Fastidious broth; settings: Neisseria gonorrhoeae, H041, read-out: Minimum Inhibitory Concentration, N. gonorrhoeae H041
Method in brief: (§2)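 Broth microdilution against gonococcal strains expressing mosaic PBP2, starting inoculum 5×10^5 CFU/mL in Fastidious broth. Incubation runs ~24 h at 36 °C under 5% CO2, with MIC scored visually at <10% of full growth.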

N. gonorrhoeae WHO Q = test: Liquid broth MIC in Fastidious broth; settings: Neisseria gonorrhoeae, read-out: Minimum Inhibitory Concentration, N. gonorrhoeae WHO Q
Method in brief: as §2

N. gonorrhoeae WHO K = test: Liquid broth MIC in Fastidious broth; settings: Neisseria gonorrhoeae, read-out: Minimum Inhibitory Concentration, N. gonorrhoeae WHO K
Method in brief: as §2

N. gonorrhoeae WHO Z = test: Liquid broth MIC in Fastidious broth; settings: Neisseria gonorrhoeae, read-out: Minimum Inhibitory Concentration, N. gonorrhoeae WHO Z
Method in brief: as §2

[1] = system: N. gonorrhoeae ATCC 49226; test: Liquid broth MIC in Fastidious broth; settings: Neisseria gonorrhoeae, ATCC49226; N. gonorrhoeae strain ATCC 49226; Fastidious broth; read-out: Minimum Inhibitory Concentration, N. gonorrhoeae ATCC 49226
Method in brief: as §1

N. gonorrhoeae WHO L = test: Liquid broth MIC in Fastidious broth; settings: Neisseria gonorrhoeae; N. gonorrhoeae strain WHO L; Fastidious broth; read-out: Minimum Inhibitory Concentration, N. gonorrhoeae WHO L
Method in brief: as §1

[2] = system: P. aeruginosa (ΔmexAB-oprM); test: Broth microdilution MIC in CAMHB; settings: Pseudomonas aeruginosa, read-out: Minimum Inhibitory Concentration, P. aeruginosa ΔmexAB-OprM
Method in brief: (§3)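 Colonies from cation-adjusted Mueller Hinton agar are grown in broth (3-5 h, 37° C), adjusted by OD600, and added at 2-8×10^5 CFU/mL to 2-fold compound dilutions. After 16-20 h at 37° C, the lowest concentration without growth is taken as MIC.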

P. aeruginosa ATCC 35151 = test: Broth microdilution MIC in CAMHB; settings: Pseudomonas aeruginosa, ATCC35151; MHB; hyper-permeable strain; read-out: Minimum Inhibitory Concentration, P. aeruginosa ATCC 35151
Method in brief: as §3

E. coli 901C = test: Broth microdilution MIC in CAMHB; settings: Escherichia coli; E. coli 901C (hyper-permeable); MHB; read-out: Minimum Inhibitory Concentration, E. coli 901C
Method in brief: as §3

A. baumannii ATCC 19606 = test: Broth microdilution MIC in CAMHB; settings: Acinetobacter baumannii, ATCC19606; MHB; read-out: Minimum Inhibitory Concentration, A. baumannii ATCC 19606
Method in brief: as §3

[3] = system: K. pneumoniae UMM producing SHV-5 and KPC-2; test: Broth microdilution MIC in CAMHB; settings: Klebsiella pneumoniae, read-out: Minimum Inhibitory Concentration, K. pneumoniae UMM
Method in brief: as §3

SMILES | MIC (N. gonorrhoeae FA1090) [µg/mL] | MIC (N. gonorrhoeae WHO G) [µg/mL] | MIC (N. gonorrhoeae H041) [µg/mL] | MIC (N. gonorrhoeae WHO Q) [µg/mL] | MIC (N. gonorrhoeae WHO K) [µg/mL] | MIC (N. gonorrhoeae WHO Z) [µg/mL] | MIC [1] [µg/mL] | MIC (N. gonorrhoeae WHO L) [µg/mL] | MIC [2] [µg/mL] | MIC (P. aeruginosa ATCC 35151) [µg/mL] | MIC (E. coli 901C) [µg/mL] | MIC (A. baumannii ATCC 19606) [µg/mL] | MIC [3] [µg/mL]
NCCCN1CCN(C(=O)NC(C(=O)N[C@H]2Cc3cccc(C(=O)O)c3OB2O)c2c(F)cc(O)cc2F)C(=O)C1=O (stereo partly drawn) [Example 183, (3R)-3-(2-(4-(3-aminopropyl)-2,3-dioxopiperazine-1-carboxamido)-2-(2,6-difluoro-4-hydroxyphenyl)acetamido)-2-hydroxy-3,4-dihydro-2H-benzo[e][1,2]oxaborinine-8-carboxylic acid] | 1 to 2 (≈ 1.7 to 3.39 µM) | 16 to 32 (≈ 27.2 to 54.3 µM) | > 64 | > 64 | > 64 | > 64 | 16 to 32 (≈ 27.2 to 54.3 µM) | > 64 | 8 to 16 (≈ 13.6 to 27.2 µM) | 2 to 4 (≈ 3.39 to 6.79 µM) | 0.5 to 1 (≈ 0.848 to 1.7 µM) | > 128 | 8 to 16 (≈ 13.6 to 27.2 µM)
CCN1CCN(C(=O)NC(C(=O)N[C@H]2Cc3cccc(C(=O)O)c3OB2O)c2cc([N+](=O)[O-])c(O)cc2F)C(=O)C1=O (stereo partly drawn) [Example 184, (3R)-3-(2-(4-ethyl-2,3-dioxopiperazine-1-carboxamido)-2-(2-fluoro-4-hydroxy-5-nitrophenyl)acetamido)-2-hydroxy-3,4-dihydro-2H-benzo[e][1,2]oxaborinine-8-carboxylic acid] | < 0.125 | 1 to 2 (≈ 1.7 to 3.41 µM) | 16 to 32 (≈ 27.2 to 54.5 µM) | 4 to 8 (≈ 6.81 to 13.6 µM) | 16 to 32 (≈ 27.2 to 54.5 µM) | 4 to 8 (≈ 6.81 to 13.6 µM) | 4 to 8 (≈ 6.81 to 13.6 µM) | 16 to 32 (≈ 27.2 to 54.5 µM) | 8 to 16 (≈ 13.6 to 27.2 µM) | 0.5 to 1 (≈ 0.851 to 1.7 µM) | < 0.25 | > 128 | 32 to 64 (≈ 54.5 to 109 µM)
CCN1CCN(C(=O)NC(C(=O)N[C@H]2Cc3cccc(C(=O)O)c3OB2O)c2ccc(O)c(Cl)c2F)C(=O)C1=O (stereo partly drawn) [Example 185, (3R)-3-(2-(3-chloro-2-fluoro-4-hydroxyphenyl)-2-(4-ethyl-2,3-dioxopiperazine-1-carboxamido)acetamido)-2-hydroxy-3,4-dihydro-2H-benzo[e][1,2]oxaborinine-8-carboxylic acid] | < 0.125 | 4 to 8 (≈ 6.94 to 13.9 µM) | 16 to 32 (≈ 27.7 to 55.5 µM) | 16 to 32 (≈ 27.7 to 55.5 µM) | 16 to 32 (≈ 27.7 to 55.5 µM) | 4 to 8 (≈ 6.94 to 13.9 µM) | 4 to 8 (≈ 6.94 to 13.9 µM) | 16 to 32 (≈ 27.7 to 55.5 µM) | 2 to 4 (≈ 3.47 to 6.94 µM) | 0.5 to 1 (≈ 0.867 to 1.73 µM) | < 0.25 | > 128 | 32 to 64 (≈ 55.5 to 111 µM)
CCN1CCN(C(=O)NC(C(=O)N[C@H]2Cc3cccc(C(=O)O)c3OB2O)c2c(F)cc(NC(C)=O)cc2F)C(=O)C1=O (stereo partly drawn) [Example 188, (3R)-3-(2-(4-acetamido-2,6-difluorophenyl)-2-(4-ethyl-2,3-dioxopiperazine-1-carboxamido)acetamido)-2-hydroxy-3,4-dihydro-2H-benzo[e][1,2]oxaborinine-8-carboxylic acid] | 0.25 to 0.5 (≈ 0.416 to 0.831 µM) | 4 to 8 (≈ 6.65 to 13.3 µM) | > 64 | 16 to 32 (≈ 26.6 to 53.2 µM) | > 64 | 16 to 32 (≈ 26.6 to 53.2 µM) | 4 to 8 (≈ 6.65 to 13.3 µM) | > 64 | 32 to 64 (≈ 53.2 to 106 µM) | 0.5 to 1 (≈ 0.831 to 1.66 µM) | < 0.25 | > 128 | 32 to 64 (≈ 53.2 to 106 µM)
CCN1CCN(C(=O)NC(C(=O)N[C@H]2Cc3cccc(C(=O)O)c3OB2O)c2cc(C#N)c(OC)cc2F)C(=O)C1=O (stereo partly drawn) [Example 192, (3R)-3-(2-(5-cyano-2-fluoro-4-methoxyphenyl)-2-(4-ethyl-2,3-dioxopiperazine-1-carboxamido)acetamido)-2-hydroxy-3,4-dihydro-2H-benzo[e][1,2]oxaborinine-8-carboxylic acid] | 4 to 8 (≈ 6.88 to 13.8 µM) | > 64 | > 64 | > 64 | > 64 | > 64 | > 64 | > 64 | 32 to 64 (≈ 55 to 110 µM) | 2 to 4 (≈ 3.44 to 6.88 µM) | 2 to 4 (≈ 3.44 to 6.88 µM) | > 128 | > 128
O=C(O)c1cccc2c1OB(O)[C@@H](NC(=O)C(NC(=O)N1CCN(CC3CNC3)C(=O)C1=O)c1c(F)cc(O)cc1F)C2 (stereo partly drawn) [Example 193, (3R)-3-(2-(4-(azetidin-3-ylmethyl)-2,3-dioxopiperazine-1-carboxamido)-2-(2,6-difluoro-4-hydroxyphenyl)acetamido)-2-hydroxy-3,4-dihydro-2H-benzo[e][1,2]oxaborinine-8-carboxylic acid] | 1 to 2 (≈ 1.66 to 3.33 µM) | 16 to 32 (≈ 26.6 to 53.2 µM) | > 64 | > 64 | > 64 | > 64 | > 64 | > 64 | 8 to 16 (≈ 13.3 to 26.6 µM) | 0.5 to 1 (≈ 0.831 to 1.66 µM) | 0.5 to 1 (≈ 0.831 to 1.66 µM) | > 128 | 8 to 16 (≈ 13.3 to 26.6 µM)
CCN1CCN(C(=O)NC(C(=O)N[C@H]2Cc3cccc(C(=O)O)c3OB2O)c2ccc(C(=O)O)c(O)c2)C(=O)C1=O (stereo partly drawn) [Example 196, (3R)-3-(2-(4-carboxy-3-hydroxyphenyl)-2-(4-ethyl-2,3-dioxopiperazine-1-carboxamido)acetamido)-2-hydroxy-3,4-dihydro-2H-benzo[e][1,2]oxaborinine-8-carboxylic acid] | 0.25 to 0.5 (≈ 0.44 to 0.88 µM) | 1 to 2 (≈ 1.76 to 3.52 µM) | 16 to 32 (≈ 28.2 to 56.3 µM) | 4 to 8 (≈ 7.04 to 14.1 µM) | 4 to 8 (≈ 7.04 to 14.1 µM) | 4 to 8 (≈ 7.04 to 14.1 µM) | 4 to 8 (≈ 7.04 to 14.1 µM) | 16 to 32 (≈ 28.2 to 56.3 µM) | 2 to 4 (≈ 3.52 to 7.04 µM) | < 0.25 | < 0.25 | > 128 | 8 to 16 (≈ 14.1 to 28.2 µM)
CCN1CCN(C(=O)NC(C(=O)N[C@H]2Cc3cccc(C(=O)O)c3OB2O)c2cc(NS(N)(=O)=O)ccc2F)C(=O)C1=O (stereo partly drawn) [Example 197, (3R)-3-(2-(4-ethyl-2,3-dioxopiperazine-1-carboxamido)-2-(2-fluoro-5-(sulfamoylamino)phenyl)acetamido)-2-hydroxy-3,4-dihydro-2H-benzo[e][1,2]oxaborinine-8-carboxylic acid] | 0.25 to 0.5 (≈ 0.403 to 0.806 µM) | 4 to 8 (≈ 6.45 to 12.9 µM) | 16 to 32 (≈ 25.8 to 51.6 µM) | 16 to 32 (≈ 25.8 to 51.6 µM) | 16 to 32 (≈ 25.8 to 51.6 µM) | 16 to 32 (≈ 25.8 to 51.6 µM) | 16 to 32 (≈ 25.8 to 51.6 µM) | > 64 | 2 to 4 (≈ 3.22 to 6.45 µM) | < 0.25 | < 0.25 | 32 to 64 (≈ 51.6 to 103 µM) | 8 to 16 (≈ 12.9 to 25.8 µM)
